The subject of assay [1] is COLO205 colon adenocarcinoma (B-Raf V600E mutation). The assay can be described thus: COLO205 cell growth inhibition (ATPlite luminescence). Particulars: Homo sapiens, COLO 205, 72 h, COLO205 cells, incubated 3 days with compound. It counts as cell-based. As to the method:
Compounds are assessed in a variety of cell based assays. For example human cell lines with B-Raf V600E mutation (A375 melanoma, SKMEL3 melanoma, and COLO205 colon adenocarcinoma), as well as tumorigenic cell lines with wild-type B-RAF (SW620 colon adenocarcinoma) or with Ras mutations (SKMEL2 melanoma and IPC298 melanoma). Similar assays may be used to assess additional tumorigenic cell lines with Ras mutations, including, but not limited to, M202, M207, M243, M244, M296, S117, HCT116, HCT15, DLD1, MiaPaCa, A549, NCI-H23, NCI-H460, HOP62, MDA-MB231, Hs-578T, HL60, MOLT-4, and CCRF-CEM.
On day 1, cells are counted, then centrifuged in a conical tube for 5 minutes at 1000 rpm. The supernatant is removed and cells are re-suspended as follows: • SW620 (ATCC catalog #CCL-27): resuspend in Leibovitz's L-15 medium, 2 mM L-glutamine, 10% fetal bovine serum to 6×10^4 cells/mL. • A375 (ATCC catalog #CRL-1619): resuspend in Dulbecco's modified Eagle's medium, 4 mM L-glutamine, 4.5 g/L D-glucose, 10% fetal bovine serum to 6×10^4 cells/mL. • COLO205 (ATCC catalog #CCL-222): resuspend in RPMI 1640, 2 mM L-glutamine, 1.5 g/L sodium bicarbonate, 4.5 g/L D-glucose, 10 mM HEPES, 1.0 mM sodium pyruvate, 10% fetal bovine serum to 6×10^4 cells/mL. • SKMEL2 (ATCC catalog #HTB-68): resuspend in Minimum Eagle essential medium, 2 mM L-glutamine, 1.5 g/L sodium bicarbonate, 0.1 mM non-essential amino acids, 1.0 mM sodium pyruvate, 10% fetal bovine serum to 6×10^4 cells/mL. • SKMEL3 (ATCC catalog #HTB-69): resuspend in McCoy's 5A medium, 1.5 mM L-glutamine, 15% fetal bovine serum to 6×10^4 cells/mL. • IPC298 (DSMZ catalog #ACC 251): resuspend in RPMI 1640, 2 mM L-glutamine, 10% fetal bovine serum to 6×10^4 cells/mL.
The cells are plated, 50 μL in each well of a 96-well dish (Corning 3610) and incubated at 37° C. in 5% CO2 overnight, cells plated to a final concentration of cells as follows:
On day 2, compound at a maximum concentration of 5 mM is serially diluted 1:3 (e.g. 10 μL with 30 μL dimethyl sulfoxide) for a total of 8 point titration with DMSO as a control. A 1 μL aliquot of each dilution point and control is added to 249 μL growth media and 50 μL is added to a well containing cells, providing 10 μM compound at the maximum concentration point. The cells are incubated for 3 days at 37° C. in 5% CO2.
On day 5, ATPlite 1 step Luminescence Assay System (Perkin Elmer #6016739) is brought to room temperature along with the cell cultures. ATPlite is added 25 μL to each well, shake for 2 minutes, and the cells are incubated at room temperature for 10 minutes, then luminescence is read on Safire reader. The measured luminescence correlates directly with cell number, such that the reading as a function of compound concentration is used to determine the IC50 value.
It is understood that the results of these assays may vary as assay conditions are varied. Inhibition levels determined under the conditions described herein represent a relative activity for the compounds tested under the specific conditions employed. The cell based assays are likely to show variability due to the complexity of the system and the sensitivity thereof to any changes in the assay conditions. […] Results for compounds that are tested and show substantially no inhibition below the highest tested concentration are represented as “-” in the tables below. In some instances, the compounds were not tested in all of the assays, or assay results were not valid, as indicated by NA in the tables below.

Another assay addresses B-Raf (Homo sapiens, UniProt P15056). The assay can be described thus: B-Raf kinase activity assay (AlphaScreen, biotin-MEK1 substrate). The following applies: 100 μM ATP, 100 nM biotin-MEK1, 45 minutes at room temperature; read-out: Biochemical activity (IC50 μM) B-Raf. A digest of the protocol: (§1)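 AlphaScreen detection of phospho-MEK1 uses anti-phospho-MEK1/2 antibody and donor/acceptor beads, incubated 3 h. The kinase step runs 45 min at room temperature with 0.1 ng enzyme, 100 nM biotin-MEK1 and 100 μM ATP in 50 mM HEPES pH 7.0. IC50 is derived from eight compound concentrations.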

The target of another assay is B-Raf V600E (Homo sapiens, UniProt P15056, V600E). The assay can be described thus: B-Raf V600E kinase activity assay (AlphaScreen, biotin-MEK1 substrate). Particulars: 100 μM ATP, 100 nM biotin-MEK1, 45 minutes at room temperature, read-out: Biochemical activity (IC50 μM) V600E. In a few lines:
as §1

For the next assay, the target named is c-Raf-1 (Homo sapiens, UniProt P04049). The assay can be described thus: c-Raf-1 kinase activity assay (AlphaScreen, biotin-MEK1 substrate). The following applies: 100 μM ATP, 100 nM biotin-MEK1, 45 minutes at room temperature; read-out: Biochemical activity (IC50 μM) c-Raf-1. In a few lines:
as §1

Each structure is given as a SMILES string.

From US9440969B2, “Compounds and methods for kinase modulation, and indications therefor” (PLEXXIKON INC., priority 2009, dated 2016) come the findings set out here.

Sequence of c-Raf-1 (P04049 whole entry Y340D/Y341D, form open): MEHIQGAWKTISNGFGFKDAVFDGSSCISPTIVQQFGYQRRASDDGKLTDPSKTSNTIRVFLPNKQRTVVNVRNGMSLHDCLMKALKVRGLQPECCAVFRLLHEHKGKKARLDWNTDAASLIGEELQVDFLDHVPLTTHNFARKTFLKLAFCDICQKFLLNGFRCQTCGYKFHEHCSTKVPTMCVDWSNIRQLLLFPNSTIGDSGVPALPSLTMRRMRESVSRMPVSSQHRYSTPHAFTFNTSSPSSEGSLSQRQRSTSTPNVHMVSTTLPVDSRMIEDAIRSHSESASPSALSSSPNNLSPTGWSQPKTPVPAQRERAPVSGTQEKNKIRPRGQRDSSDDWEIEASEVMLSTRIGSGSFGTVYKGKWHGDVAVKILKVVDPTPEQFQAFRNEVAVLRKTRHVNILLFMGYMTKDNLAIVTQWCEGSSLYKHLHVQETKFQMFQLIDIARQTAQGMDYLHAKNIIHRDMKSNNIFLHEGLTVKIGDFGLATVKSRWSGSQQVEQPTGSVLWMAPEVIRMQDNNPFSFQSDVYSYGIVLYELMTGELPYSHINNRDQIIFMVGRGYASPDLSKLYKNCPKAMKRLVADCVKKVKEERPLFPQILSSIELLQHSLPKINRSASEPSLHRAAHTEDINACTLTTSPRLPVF
Sequence of B-Raf V600E (P15056 whole entry V600E): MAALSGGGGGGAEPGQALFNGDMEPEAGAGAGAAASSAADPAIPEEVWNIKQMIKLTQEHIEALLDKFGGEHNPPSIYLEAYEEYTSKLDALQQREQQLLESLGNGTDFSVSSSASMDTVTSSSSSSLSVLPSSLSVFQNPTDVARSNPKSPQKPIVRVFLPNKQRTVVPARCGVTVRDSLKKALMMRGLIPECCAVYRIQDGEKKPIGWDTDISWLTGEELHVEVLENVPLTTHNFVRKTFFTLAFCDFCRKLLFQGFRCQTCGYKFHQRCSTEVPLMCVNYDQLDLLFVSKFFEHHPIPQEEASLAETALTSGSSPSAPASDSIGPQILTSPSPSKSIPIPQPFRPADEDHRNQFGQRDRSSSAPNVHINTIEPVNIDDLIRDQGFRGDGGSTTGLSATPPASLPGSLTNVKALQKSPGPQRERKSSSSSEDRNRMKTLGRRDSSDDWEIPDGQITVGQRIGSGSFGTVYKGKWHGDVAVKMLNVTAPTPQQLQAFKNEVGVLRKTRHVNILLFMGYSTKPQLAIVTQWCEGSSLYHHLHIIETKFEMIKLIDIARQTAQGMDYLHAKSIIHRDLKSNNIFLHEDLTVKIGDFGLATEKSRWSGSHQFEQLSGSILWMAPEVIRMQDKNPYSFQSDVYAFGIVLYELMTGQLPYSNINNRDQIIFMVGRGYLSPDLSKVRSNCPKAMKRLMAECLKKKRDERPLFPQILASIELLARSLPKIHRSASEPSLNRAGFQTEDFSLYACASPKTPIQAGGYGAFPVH
Sequence of B-Raf (P15056 whole entry): as the sequence (P15056 whole entry V600E) above, with E600V counted along it

With `CCCS(=O)(=O)Nc1ccc(F)c(C(=O)c2c[nH]c3ncc(-c4csc(-n5cccn5)n4)cc23)c1F` [P-1103, Propane-1-sulfonic acid {2,4-difluoro-3-[5-(2-pyrazol-1-yl-thiazol-4-yl)-1H-pyrrolo[2,3-b]pyridine-3-carbonyl]-phenyl}-amide], the IC50 in assay [1] is over 1 µM; on B-Raf, under 0.1 µM; at B-Raf V600E, under 0.1 µM; on c-Raf-1 it was under 0.1 µM.
For `CCCS(=O)(=O)Nc1ccc(F)c(C(=O)c2c[nH]c3ncc(-c4ccc5c(c4)CC(=O)N5)cc23)c1F` [P-1703, Propane-1-sulfonic acid {2,4-difluoro-3-[5-(2-oxo-2,3-dihydro-1H-indol-5-yl)-1H-pyrrolo[2,3-b]pyridine-3-carbonyl]-phenyl}-amide], the half-maximal inhibitory concentration (IC50) in assay [1] is under 1 µM; on B-Raf, under 0.1 µM; at B-Raf V600E, under 0.1 µM; on c-Raf-1, under 0.1 µM.
As to `CCCS(=O)(=O)Nc1ccc(F)c(C(=O)c2c[nH]c3ncc(-c4ccc5[nH]nc(C)c5c4)cc23)c1F` [P-0024, Propane-1-sulfonic acid {2,4-difluoro-3-[5-(3-methyl-1H-indazol-5-yl)-1H-pyrrolo[2,3-b]pyridine-3-carbonyl]-phenyl}-amide], the IC50 in assay [1] is under 1 µM; on B-Raf, under 0.1 µM; at B-Raf V600E it was under 0.1 µM; on c-Raf-1, under 0.1 µM.
Consider `CCCS(=O)(=O)Nc1ccc(F)c(C(=O)c2c[nH]c3ncc(-c4ccc5nccnc5c4)cc23)c1F` [P-0014, Propane-1-sulfonic acid [2,4-difluoro-3-(5-quinoxalin-6-yl-1H-pyrrolo[2,3-b]pyridine-3-carbonyl)-phenyl]-amide], for which the half-maximal inhibitory concentration (IC50) in assay [1] was under 1 µM; on B-Raf, under 0.1 µM; on B-Raf V600E, under 0.1 µM; at c-Raf-1, under 0.1 µM.
As for `CCCS(=O)(=O)Nc1ccc(F)c(C(=O)c2c[nH]c3ncc(-c4ccc5scnc5c4)cc23)c1F` [P-0013, Propane-1-sulfonic acid [3-(5-benzothiazol-5-yl-1H-pyrrolo[2,3-b]pyridine-3-carbonyl)-2,4-difluoro-phenyl]-amide], the IC50 is under 1 µM in assay [1], under 0.1 µM on B-Raf, under 0.1 µM on B-Raf V600E and under 0.1 µM on c-Raf-1.
Turning to `CCCS(=O)(=O)Nc1ccc(F)c(C(=O)c2c[nH]c3ncc(C(=O)Nc4cccnc4)cc23)c1F` [P-1801, 3-[2,6-Difluoro-3-(propane-1-sulfonylamino)-benzoyl]-1H-pyrrolo[2,3-b]pyridine-5-carboxylic acid pyridin-3-ylamide], the IC50 was over 1 µM in assay [1], under 0.1 µM at B-Raf, under 0.1 µM at B-Raf V600E and under 0.1 µM at c-Raf-1.
For `CCCS(=O)(=O)Nc1ccc(F)c(C(=O)c2c[nH]c3ncc(-c4cnn(-c5nnn[nH]5)c4)cc23)c1F` [P-1008, Propane-1-sulfonic acid (2,4-difluoro-3-{5-[1-(1H-tetrazol-5-yl)-1H-pyrazol-4-yl]-1H-pyrrolo[2,3-b]pyridine-3-carbonyl}-phenyl)-amide], the IC50 in assay [1] was over 1 µM; at B-Raf, under 0.1 µM; on B-Raf V600E, under 0.1 µM; at c-Raf-1, under 0.1 µM.
As to `CCCS(=O)(=O)Nc1ccc(F)c(C(=O)c2c[nH]c3ncc(-c4cnc(-n5cccn5)cn4)cc23)c1F` [P-1601, Propane-1-sulfonic acid {2,4-difluoro-3-[5-(5-pyrazol-1-yl-pyrazin-2-yl)-1H-pyrrolo[2,3-b]pyridine-3-carbonyl]-phenyl}-amide], the IC50 in assay [1] was under 1 µM; on B-Raf it was under 0.1 µM; on B-Raf V600E it was under 0.1 µM; on c-Raf-1, under 0.1 µM.
Turning to `CCCS(=O)(=O)Nc1ccc(F)c(C(=O)c2c[nH]c3ncc(-c4ccc(-c5cc[nH]n5)s4)cc23)c1F` [P-1201, Propane-1-sulfonic acid (2,4-difluoro-3-{5-[5-(1H-pyrazol-3-yl)-thiophen-2-yl]-1H-pyrrolo[2,3-b]pyridine-3-carbonyl}-phenyl)-amide], the 50% inhibitory concentration (IC50) was under 1 µM in assay [1], under 0.1 µM at B-Raf, under 0.1 µM on B-Raf V600E and under 0.1 µM at c-Raf-1.
As for `CCCS(=O)(=O)Nc1ccc(F)c(C(=O)c2c[nH]c3ncc(-c4ccc(Cl)c(C(N)=O)c4)cc23)c1F` [P-1700, 2-Chloro-5-{3-[2,6-difluoro-3-(propane-1-sulfonylamino)-benzoyl]-1H-pyrrolo[2,3-b]pyridin-5-yl}-benzamide], the IC50 is under 1 µM in assay [1], under 0.1 µM at B-Raf, under 0.1 µM on B-Raf V600E and under 0.1 µM on c-Raf-1.
For `CCCS(=O)(=O)Nc1ccc(F)c(C(=O)c2c[nH]c3ncc(-c4cnn(-c5ncccn5)c4)cc23)c1F` [P-1005, Propane-1-sulfonic acid {2,4-difluoro-3-[5-(1-pyrimidin-2-yl-1H-pyrazol-4-yl)-1H-pyrrolo[2,3-b]pyridine-3-carbonyl]-phenyl}-amide], the IC50 was under 1 µM in assay [1], under 0.1 µM at B-Raf, under 0.1 µM on B-Raf V600E and under 0.1 µM on c-Raf-1.
Take `CCCS(=O)(=O)Nc1ccc(F)c(C(=O)c2c[nH]c3ncc(-c4csc(-n5cnc(C)c5)n4)cc23)c1F` [P-1100, Propane-1-sulfonic acid (2,4-difluoro-3-{5-[2-(4-methyl-imidazol-1-yl)-thiazol-4-yl]-1H-pyrrolo[2,3-b]pyridine-3-carbonyl}-phenyl)-amide]: the IC50 in assay [1] is under 1 µM; on B-Raf it was under 0.1 µM; on B-Raf V600E, under 0.1 µM; at c-Raf-1, under 0.1 µM.
Turning to `CCCS(=O)(=O)Nc1ccc(F)c(C(=O)c2c[nH]c3ncc(-c4cccc5[nH]ncc45)cc23)c1F` [P-0009, Propane-1-sulfonic acid {2,4-difluoro-3-[5-(1H-indazol-4-yl)-1H-pyrrolo[2,3-b]pyridine-3-carbonyl]-phenyl}-amide], the IC50 (in assay [1]; on B-Raf; at B-Raf V600E; on c-Raf-1) was under 1 µM in each case.
